# Results: EP1344776A1, “5- 2-hydroxy-3-[1-(3-trifluoromethylphenyl)-cyclopropyl]-propionylamino -phtalide and 6- 2-hydroxy-3-[1-(3-trifluoromethylphenyl)-cyclopropyl]-propionylamino -4-methyl-2,3-benzoxazin-1-one derivatives with progesterone receptor modulating activity for use in fertility control, hormone replacement …” (Schering Aktiengesellschaft, priority 2002, dated 2003)
# Like-named read-outs stand apart in the source and are kept apart here.
# How the values were obtained:
# juvenile female rabbits = assay: Endometrial transformation in rabbit (Clauberg test); type: in vivo; settings: for McPhail Index: scores 1 to 4; for minimal effective dose: Oryctolagus cuniculus, read-out: Threshold Value
# rat mammary epithelium = assay: Bioassay on proliferating/differentiating effects in the rat mammary epithelium (whole mount staining); type: in vivo
# Experimental: The object of this test is to evaluate the effect of progestins on the development of the mammary gland, in particular on the formation of terminal end buds in the mammary gland in estrogen primed rats.
# Premature female rats (Wistar Han, SPF) are ovariectomized at the age of 21 days, 4 to 6 days before treatment start. The animals are treated for 6 days with standard estrogen (estrone, 70 µg/kg) and the test progestin (application volume: 0.1 ml/50g body weight; vehicle: benzylbenzoate/castor oil (1+4 v/v); subcutaneous). Control groups are e.g.: vehicle, estrone without progestin, estradiol together with a known progestin, e.g. R5020 (promegestone). After the 6-day treatment the animals are killed with carbon dioxide.
# For the whole mount staining, animals are shaved in the left abdominal inguinal mammary region, which is cut from the body together with the skin. For the histological/immunohistochemical analyses the right abdominal inguinal mammary gland is cut from the body together with the connective tissue adhered thereto and fixed in 3.7 % formalin in PBS (phosphate buffer saline; without Ca^2+/Mg^2+).
# The preparations are fixed over night in alcohol-formalin according to the method of Tellyesniczky (see below). Then the mammary gland tissue and subcutis adhered thereto are stripped from the cutis and the preparations are again fixed over night. The further steps are as follows: ethanol 70 %: 1.5 hours; acetone: 3 × 1.5 hours; acetone: over night; isopropanol: 1.5 hours; ethanol 96 %: 2 hours; hematoxylin-iron: 3 hours; VE water: first rinse the preparations and then 2 × 0.5 hours; ethanol 70 %: over night; ethanol 80 %: 1.5 hours; ethanol 96 %: 1.5 hours; isopropanol: 1.5 hours. The preparations are then moved to petri dishes and left in toluene for approximately 1 hour, i.e. until they have stopped to swim up. Then the preparations are treated with cedarwood oil (Merck, no. 1.06965). The incubation times above are minimum times and can be extended. In particular, incubation in ethanol 70 % after fixation can be extended to at least 2.5 weeks.
# Preparation of the solutions necessary for the whole mount staining: • a) Alcohol-formalin according to Tellyesniczky: formaldehyde 37%: 81.8 ml, ethanol 70 %: 1636 ml, glacial acetic acid (to be added shortly before use): 81.8 ml (total: 1800 ml). • b) Hematoxylin mother solution: Hematoxylin (Merck, no. 1.15938): 10 g, ethanol 96 %: 100 ml. The solution must stand for 48 hours at 37 °C before use. It can be kept in a dark place for almost unlimited time. • c) Hematoxylin-iron solution for use: hematoxylin mother solution (filtered): 15.2 ml, ethanol 96 %: 1374 ml, FeCl3 x 6 H2O (s. 4): 91.1 ml, 1 mol/l HCl: 220 ml (total: 1700 ml); adjustment to a pH of 1.25 with 2mol/l NaOH. • d) FeCl3 x 6 H2O solution: FeCl3 x 6 H2O (Merck, no. 1.03943): 1.07 g, VE water: 90.2 ml, HCl: 37 %: 0.92 ml (total: 91.1 ml).
# By means of a 40-fold magnification, the terminal end buds near the nipple in direction of the tail are counted. The area to be investigated should be about 1.8 mm^2. For well-differentiated preparations this area may be reduced, with at least 250 buds to be counted. After counting, the number of end buds per 1 mm^2 is calculated. […]
# [1] = target: T1, glucocorticoid receptor (GR) (Homo sapiens, UniProt P04150); assay: Glucocorticoid receptor binding
# T1 sequence (P04150 1-777): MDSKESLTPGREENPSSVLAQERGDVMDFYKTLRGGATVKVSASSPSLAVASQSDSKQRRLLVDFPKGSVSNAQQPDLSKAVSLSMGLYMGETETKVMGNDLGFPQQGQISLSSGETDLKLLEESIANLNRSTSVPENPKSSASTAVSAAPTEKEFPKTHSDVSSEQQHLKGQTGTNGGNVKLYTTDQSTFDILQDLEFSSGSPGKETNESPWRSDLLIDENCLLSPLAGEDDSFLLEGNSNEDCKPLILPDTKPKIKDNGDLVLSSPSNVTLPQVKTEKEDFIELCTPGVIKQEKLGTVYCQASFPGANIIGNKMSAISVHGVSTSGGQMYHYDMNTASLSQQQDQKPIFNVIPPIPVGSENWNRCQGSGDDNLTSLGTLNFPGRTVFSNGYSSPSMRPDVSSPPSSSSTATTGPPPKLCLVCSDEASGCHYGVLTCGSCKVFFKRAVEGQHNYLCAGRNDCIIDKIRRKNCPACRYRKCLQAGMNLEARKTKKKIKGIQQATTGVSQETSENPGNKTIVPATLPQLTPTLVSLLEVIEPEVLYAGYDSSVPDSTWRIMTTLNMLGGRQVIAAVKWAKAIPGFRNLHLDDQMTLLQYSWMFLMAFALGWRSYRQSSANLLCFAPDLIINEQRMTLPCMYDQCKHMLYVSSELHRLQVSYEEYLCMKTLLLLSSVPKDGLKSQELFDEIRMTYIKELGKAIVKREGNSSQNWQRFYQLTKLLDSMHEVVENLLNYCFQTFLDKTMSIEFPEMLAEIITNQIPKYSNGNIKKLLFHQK
# [2] = Glucocorticoid / anti-glucocorticoid activity in vivo (changes in thymus weight); settings: concluded from changes in thymus weight
smiles,measurement,setting,value
"O=C1OCc2cc(NC(=O)C(O)(CC3(c4cc(C(F)(F)F)ccc4F)CC3)C(F)(F)F)ccc21 (single isomer, unassigned; (+)) [((+)-1), (+)-5-{2-hydroxy-3-[1-(2-fluoro-5-trifluoromethylphenyl)-cyclopropyl]-2-trifluoromethyl-propionylamino}-phthalide]",McPhail Index,"juvenile female rabbits; Oral (p.o.), 0.001 mg/kg",1.2
same,McPhail Index,"juvenile female rabbits; Oral (p.o.), 0.01 mg/kg",2.5
same,McPhail Index,"juvenile female rabbits; Oral (p.o.), 0.1 mg/kg",3.0
same,minimal effective dose,"juvenile female rabbits; sc, Subcutaneous (s.c.)",0.001 to 0.01 mg/kg
same,minimal effective dose,juvenile female rabbits; Oral (p.o.),0.001 to 0.01 mg/kg
same,McPhail Index,"juvenile female rabbits; Subcutaneous (s.c.), 0.001 mg/kg",1.0
same,McPhail Index,"juvenile female rabbits; Subcutaneous (s.c.), 0.01 mg/kg",2.7
same,McPhail Index,"juvenile female rabbits; Subcutaneous (s.c.), 0.1 mg/kg",3.8
same,"Mammary gland, whole mount staining (rat) [equi-efficient dose], factor compared to R5020",rat mammary epithelium; median of three independent tests,ca. 1
same,effects at the mammary gland,"rat mammary epithelium; rat, amount suitable for maintaining pregnancy",no effects at the mammary gland are observed
same,"Mammary gland, whole mount staining (rat) [equi-efficient dose]","rat mammary epithelium; terminal end buds, dose pair with 0.1 mg/kg R5020, independent test",0.03 mg/kg
same,affinity for the glucocorticoid receptor (GR),[1],very high
same,glucocorticoid or anti-glucocorticoid activity in vivo,[2],does not seem to exhibit any glucocorticoid or any anti-glucocorticoid activity
